Paper PMC7794376 (Nature Communications, 2021)
In brackets after ≈: the same amount, converted by molar mass. Like-named read-outs stand apart in the source and are kept apart here.

Tests used:
MtbCoaBC [1] = biological target: T1, MtbCoaBC (Mycobacterium tuberculosis, UniProt P9WNZ1); experiment: biochemical; type: biochemical; settings: for activity at 0.03125 µM / activity at 0.0625 µM / activity at 0.25 µM / activity at 0.5 µM / activity at 1 µM / activity at 2 µM: relative to average DMSO CT; for Activity R1 / Activity R3: slope of absorbance at 360 nm vs time (s); for IC50: read-out: IC50 EnzChek MtbCoaBC
MtbCoaBC [2] = biological target: T1, MtbCoaBC; experiment: High-throughput end-point pyrophosphate quantification assay (Biomol Green); type: biochemical; settings: MtbCoaB activity; end-point, 2 µM CTP, 40 µM L-cysteine, 30 µM PPA; read-out: IC50 biomol green assay
M. tuberculosis H37Rv = experiment: MIC determination in different media; type: cell-based; settings: Mycobacterium tuberculosis, read-out: Minimum inhibitory concentration (MIC)
[3] = uM 1c 0.125 as printed, replicates R1-R3

T1 sequence (P9WNZ1 whole entry): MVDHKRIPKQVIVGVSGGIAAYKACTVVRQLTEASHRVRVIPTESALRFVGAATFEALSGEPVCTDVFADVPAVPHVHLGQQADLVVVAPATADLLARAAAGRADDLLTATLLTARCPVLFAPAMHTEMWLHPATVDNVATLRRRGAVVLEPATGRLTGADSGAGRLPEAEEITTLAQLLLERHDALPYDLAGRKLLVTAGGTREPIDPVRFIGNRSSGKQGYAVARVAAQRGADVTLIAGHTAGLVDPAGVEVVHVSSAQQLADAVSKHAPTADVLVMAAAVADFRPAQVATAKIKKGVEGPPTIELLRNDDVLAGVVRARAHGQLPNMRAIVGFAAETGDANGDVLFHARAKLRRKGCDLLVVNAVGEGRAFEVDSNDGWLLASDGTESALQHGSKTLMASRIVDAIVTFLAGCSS

O=c1cc(-c2ccc(O)cc2)oc2c(O)c(O)ccc12 [2e]
inhibition at 0.03125 µM (MtbCoaBC [1]; 0.03125 uM 2e, replicate R1, read-out: Inhibition % R1): 5.66% | activity at 0.03125 µM (MtbCoaBC [1]; 0.03125 uM 2e, replicate R1, read-out: Activity % R1): 94.3% | Activity R1 (MtbCoaBC [1]; 0.03125 uM 2e, replicate R1): 0.0001715 | inhibition at 0.03125 µM (MtbCoaBC [1]; 0.03125 uM 2e, replicate R2, read-out: Inhibition % R2): 2.73% | activity at 0.03125 µM (MtbCoaBC [1]; 0.03125 uM 2e, replicate R2, read-out: Activity % R2): 97.3% | inhibition at 0.03125 µM (MtbCoaBC [1]; 0.03125 uM 2e, replicate R3, read-out: Inhibition % R3): 8.32% | activity at 0.03125 µM (MtbCoaBC [1]; 0.03125 uM 2e, replicate R3, read-out: Activity % R3): 91.7% | Activity R3 (MtbCoaBC [1]; 0.03125 uM 2e, replicate R3): 0.0001667 | inhibition at 0.0625 µM (MtbCoaBC [1]; 0.0625 uM 2e, replicate R1, read-out: Inhibition % R1): 10.7% | activity at 0.0625 µM (MtbCoaBC [1]; 0.0625 uM 2e, replicate R1, read-out: Activity % R1): 89.3% | Activity R1 (MtbCoaBC [1]; 0.0625 uM 2e, replicate R1): 0.0001624 | inhibition at 0.0625 µM (MtbCoaBC [1]; 0.0625 uM 2e, replicate R2, read-out: Inhibition % R2): 12.6% | activity at 0.0625 µM (MtbCoaBC [1]; 0.0625 uM 2e, replicate R2, read-out: Activity % R2): 87.4% | inhibition at 0.0625 µM (MtbCoaBC [1]; 0.0625 uM 2e, replicate R3, read-out: Inhibition % R3): 12.3% | activity at 0.0625 µM (MtbCoaBC [1]; 0.0625 uM 2e, replicate R3, read-out: Activity % R3): 87.7% | Activity R3 (MtbCoaBC [1]; 0.0625 uM 2e, replicate R3): 0.0001594 | inhibition at 0.25 µM (MtbCoaBC [1]; 0.25 uM 2e, replicate R1, read-out: Inhibition % R1): 38.7% | activity at 0.25 µM (MtbCoaBC [1]; 0.25 uM 2e, replicate R1, read-out: Activity % R1): 61.3% | Activity R1 (MtbCoaBC [1]; 0.25 uM 2e, replicate R1): 0.0001114 | inhibition at 0.25 µM (MtbCoaBC [1]; 0.25 uM 2e, replicate R2, read-out: Inhibition % R2): 33.5% | activity at 0.25 µM (MtbCoaBC [1]; 0.25 uM 2e, replicate R2, read-out: Activity % R2): 66.5% | inhibition at 0.25 µM (MtbCoaBC [1]; 0.25 uM 2e, replicate R3, read-out: Inhibition % R3): 37.4% | activity at 0.25 µM (MtbCoaBC [1]; 0.25 uM 2e, replicate R3, read-out: Activity % R3): 62.6% | Activity R3 (MtbCoaBC [1]; 0.25 uM 2e, replicate R3): 0.0001138 | inhibition at 0.5 µM (MtbCoaBC [1]; 0.5 uM 2e, replicate R1, read-out: Inhibition % R1): 54.7% | activity at 0.5 µM (MtbCoaBC [1]; 0.5 uM 2e, replicate R1, read-out: Activity % R1): 45.3% | Activity R1 (MtbCoaBC [1]; 0.5 uM 2e, replicate R1): 0.000082371 | inhibition at 0.5 µM (MtbCoaBC [1]; 0.5 uM 2e, replicate R2, read-out: Inhibition % R2): 61.3% | activity at 0.5 µM (MtbCoaBC [1]; 0.5 uM 2e, replicate R2, read-out: Activity % R2): 38.7% | inhibition at 0.5 µM (MtbCoaBC [1]; 0.5 uM 2e, replicate R3, read-out: Inhibition % R3): 57.9% | activity at 0.5 µM (MtbCoaBC [1]; 0.5 uM 2e, replicate R3, read-out: Activity % R3): 42.1% | Activity R3 (MtbCoaBC [1]; 0.5 uM 2e, replicate R3): 0.000076593 | inhibition at 1 µM (MtbCoaBC [1]; 1 uM 2e, replicate R1, read-out: Inhibition % R1): 69.6% | activity at 1 µM (MtbCoaBC [1]; 1 uM 2e, replicate R1, read-out: Activity % R1): 30.4% | Activity R1 (MtbCoaBC [1]; 1 uM 2e, replicate R1): 0.000055348 | inhibition at 1 µM (MtbCoaBC [1]; 1 uM 2e, replicate R2, read-out: Inhibition % R2): 78.2% | activity at 1 µM (MtbCoaBC [1]; 1 uM 2e, replicate R2, read-out: Activity % R2): 21.8% | inhibition at 1 µM (MtbCoaBC [1]; 1 uM 2e, replicate R3, read-out: Inhibition % R3): 75.2% | activity at 1 µM (MtbCoaBC [1]; 1 uM 2e, replicate R3, read-out: Activity % R3): 24.8% | Activity R3 (MtbCoaBC [1]; 1 uM 2e, replicate R3): 0.000045005 | inhibition at 2 µM (MtbCoaBC [1]; 2 uM 2e, replicate R1, read-out: Inhibition % R1): 96.5% | activity at 2 µM (MtbCoaBC [1]; 2 uM 2e, replicate R1, read-out: Activity % R1): 3.46% | Activity R1 (MtbCoaBC [1]; 2 uM 2e, replicate R1): 0.000006285 | inhibition at 2 µM (MtbCoaBC [1]; 2 uM 2e, replicate R2, read-out: Inhibition % R2): 91.3% | activity at 2 µM (MtbCoaBC [1]; 2 uM 2e, replicate R2, read-out: Activity % R2): 8.65% | inhibition at 2 µM (MtbCoaBC [1]; 2 uM 2e, replicate R3, read-out: Inhibition % R3): 93% | activity at 2 µM (MtbCoaBC [1]; 2 uM 2e, replicate R3, read-out: Activity % R3): 6.96% | Activity R3 (MtbCoaBC [1]; 2 uM 2e, replicate R3): 0.000012661 | IC50 (MtbCoaBC [1]): 3 ± 0.2 µM | IC50 (MtbCoaBC [2]): 2.2 µM | MIC (M. tuberculosis H37Rv; 7H9/ADC/Glycerol): > 250 µM | MIC (M. tuberculosis H37Rv; GAST/Fe): 125 µM (≈ 33.8 µg/mL)

Oc1ccc(Cc2ccc(O)c(O)c2O)cc1 [compound 1c]
IC50 (MtbCoaBC [1]): 4.6 ± 0.4 µM | remaining activity at 0.03125 µM (MtbCoaBC [1]; uM 1c 0.03125 as printed, replicates R1-R3): 94.6% | remaining activity at 0.0625 µM (MtbCoaBC [1]; uM 1c 0.0625 as printed, replicates R1-R3): 87.8% | inhibition at 0.0625 µM (MtbCoaBC [1]; uM 1c 0.0625 as printed, replicates R1-R3, read-out: Inhibition %): 17.8% | inhibition at […] (MtbCoaBC [1]; [3]): 29.1% | remaining activity at […] (MtbCoaBC [1]; [3]): 74.8% | remaining activity at 0.25 µM (MtbCoaBC [1]; uM 1c 0.25 as printed, replicates R1-R3): 65.6% | inhibition at 0.25 µM (MtbCoaBC [1]; uM 1c 0.25 as printed, replicates R1-R3, read-out: Inhibition %): 40.6% | remaining activity at 0.5 µM (MtbCoaBC [1]; uM 1c 0.5 as printed, replicates R1-R3): 40.9% | inhibition at 0.5 µM (MtbCoaBC [1]; uM 1c 0.5 as printed, replicates R1-R3, read-out: Inhibition %): 68.6% | inhibition at 1 µM (MtbCoaBC [1]; uM 1c 1 as printed, replicates R1-R3, read-out: Inhibition %): 89.7% | inhibition at 2 µM (MtbCoaBC [1]; uM 1c 2 as printed, replicates R1-R3, read-out: Inhibition %): 95% | IC50 (MtbCoaBC [2]): 4.7 µM | MIC (M. tuberculosis H37Rv; 7H9/ADC/Glycerol): > 250 µM | MIC (M. tuberculosis H37Rv; GAST/Fe): 125 µM (≈ 29 µg/mL)
